Experiments:
zPTH1R [1] = assay: Agonist-stimulated cAMP accumulation, COS-7 cells expressing zPTH1R; assay type: cell-based, zebrafish; conditions: for EC50 / cAMP Maximum: intact COS-7 cells, room temperature
Experimental: (§1) Plasmid DNAs encoding the two full length ZPTH1Rs (#25 and #29) and the zPTH3R were transiently expressed in COS-7 cells. COS-7 African green monkey kidney cells (approximately 200,000 cells/well in a 24-well plate) were cultured and transfected with plasmid DNA (200 ng/well) as described (Rubin et al., (1998)). After transfection, cells were cultured for 72 hrs at 37° with daily exchanges of medium, followed by an additional 24 hrs at 33° (Gardella et al., (1997)) until they were functionally evaluated after 96 hrs.
(§2) In order to assess agonist-dependent cAMP accumulation of COS-7 cells expressing zPTH1R and zPTH3R, experiments were done in 24-well plates with COS-7 cells stimulated in the presence of increasing concentrations of either PTH or PTHrP, and intracellular cAMP was determined as described (Bergiwtz et al.,(1998)). EC50 values were determined as previously described (Gardella et al., (1996)).
(§3) Competitive binding and cAMP stimulation assays were performed at room temperature with intact COS-7 cells that expressed either the zPTH1R or the zPTH3R, as described in Materials and Methods. Homologous binding reactions utilized ^125I-rPTH with unlabeled rPTH, and ^125I-hPTHrP with unlabeled hPTHrP, heterologous binding reactions utilized ^125I-[…] with unlabeled rPTH. EC50 and IC50 values were determined as previously described (Gardella et al., 1996). Values are the mean±SEM of at least three independent transfections. ND, not determined.

zPTH3R [2] = assay: Competitive radioligand binding, COS-7 cells expressing zPTH3R; parameters: species or system zebrafish
Chain of zPTH3R (as listed by the source): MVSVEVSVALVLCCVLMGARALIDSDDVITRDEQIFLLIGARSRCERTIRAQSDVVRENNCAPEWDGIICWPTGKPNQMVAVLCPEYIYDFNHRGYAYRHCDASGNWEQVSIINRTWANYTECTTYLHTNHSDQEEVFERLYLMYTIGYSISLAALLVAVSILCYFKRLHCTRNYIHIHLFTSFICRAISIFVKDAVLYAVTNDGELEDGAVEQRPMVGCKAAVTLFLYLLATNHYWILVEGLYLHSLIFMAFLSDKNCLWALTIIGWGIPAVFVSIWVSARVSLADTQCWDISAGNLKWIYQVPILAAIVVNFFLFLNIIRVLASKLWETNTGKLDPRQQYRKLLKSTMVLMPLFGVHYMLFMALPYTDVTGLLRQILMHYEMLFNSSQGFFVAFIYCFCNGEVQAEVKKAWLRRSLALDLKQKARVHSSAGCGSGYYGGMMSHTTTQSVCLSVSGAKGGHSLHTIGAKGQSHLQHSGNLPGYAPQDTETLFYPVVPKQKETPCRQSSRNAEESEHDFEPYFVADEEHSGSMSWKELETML
Experimental: as §1
Radioligand studies with COS-7 cells expressing either zPTH1R or zPTH3R were performed as described using either ^125I-labeled [Nle^8,21,Tyr^34]rPTH-(1–34)amide (rPTH) (SEQ ID NO:22) or ^125I-labeled [Tyr^36]hPTHrP-(1–36)amide (PTHrP) (SEQ ID NO:23), and increasing concentrations of either [Tyr^34]hPTH(1–34)amide (PTH) (SEQ ID NO:24), or [Tyr36]hPTHrP(1–36)amide (PTHrP) (SEQ ID NO:25) (Bergwitz et al., (1997)). […] Specific binding was calculated by subtracting radioligand binding in the presence of excess unlabeled peptide from the total binding. […]
Competitive binding and cAMP stimulation assays were performed at room temperature with intact COS-7 cells that expressed either the zPTH1R or the zPTH3R, as described in Materials and Methods. […] EC50 and IC50 values were determined as previously described (Gardella et al., 1996). […] ND, not determined.

zPTH1R [3] = assay: Total inositol phosphate accumulation, COS-7 cells expressing zPTH1R; assay type: cell-based, zebrafish; conditions: ligand 10^−6 M, 30 mM LiCl
Experimental: (§4) In order to determine total inositol phosphate turnover for COS-7 cells expressing zPTH1R, zPTH3R, and hPTH1R, cells were grown in 6-well plates with COS-7 cells (approximately 200,00 cells/well transfected with either 1 μg/well of zPTH1R, zPTH3R, or hPTH 1R (stina)). Cells were cultured for 3 days inDMEM/7% fetal bovine serum (FBS) at 37° C. with daily exchanges of medium. The cells were then preloaded with 3 μCi/ml myo-[^3H]inositol (New England Nuclear, Boston, Mass.) in inositol-free DMEM (Gibco)/7% FBS (33° C. for 18 hr). The following day, plates were rinsed and then incubated with 10^−6 M of either PTH, PTHrP in DMEM/0.1% BSA, or with DMEM/0.1% BSA alone (40 min at 37° C.), in the presence of 30 mM LiCl. Total inositol phosphate (IPs) were isolated by anion exchange column chromatography as previously described (Iida-Klein et al., (1994 and 1995)), and 1 ml of the eluate (⅛th of total) was counted in a liquid scintillation counter (model LS 60001C, Beckman, Fullerton, Calif.). All points represent mean±S.E.M. of two to three replicates from two or more independent experiments.

zPTH3R [4] = assay: Total inositol phosphate accumulation, COS-7 cells expressing zPTH3R; assay type: cell-based, zebrafish; conditions: ligand 10^−6 M, 30 mM LiCl
Experimental: as §4

zPTH3R [5] = assay: Agonist-stimulated cAMP accumulation, COS-7 cells expressing zPTH3R; assay type: cell-based, zebrafish
Experimental: as §1, §2, §3

[6] = zPPR3, intact COS-7 cells, room temperature

Chain of zPTH1R (as listed by the source): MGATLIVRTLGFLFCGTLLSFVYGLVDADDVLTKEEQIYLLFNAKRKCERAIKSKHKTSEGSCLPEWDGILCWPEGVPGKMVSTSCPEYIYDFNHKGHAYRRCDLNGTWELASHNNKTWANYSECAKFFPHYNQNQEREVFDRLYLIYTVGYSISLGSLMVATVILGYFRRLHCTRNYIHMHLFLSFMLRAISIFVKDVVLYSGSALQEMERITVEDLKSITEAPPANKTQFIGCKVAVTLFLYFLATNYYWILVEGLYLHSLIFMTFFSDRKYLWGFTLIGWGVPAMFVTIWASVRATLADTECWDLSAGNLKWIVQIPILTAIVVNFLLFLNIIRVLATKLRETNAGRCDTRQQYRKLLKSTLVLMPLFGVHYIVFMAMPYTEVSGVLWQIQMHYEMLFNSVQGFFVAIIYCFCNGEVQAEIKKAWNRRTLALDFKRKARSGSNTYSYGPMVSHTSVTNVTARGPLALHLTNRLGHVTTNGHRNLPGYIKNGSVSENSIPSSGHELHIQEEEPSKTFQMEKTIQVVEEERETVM

Substance: [Tyr36]hPTHrP(1–36)amide
- EC50 (zPTH1R [1]; zPPR1#25): 0.9 ± 0.09 nM
- cAMP Maximum (zPTH1R [1]; zPPR1#25): 92.4 ± 8.00 pmol/well
- EC50 (zPTH1R [1]; zPPR1#29): 0.3 ± 0.04 nM
- cAMP Maximum (zPTH1R [1]; zPPR1#29): 101.6 ± 3.6 pmol/well
- maximal cAMP accumulation (zPTH1R [1]; zPTH1R#25, COS-7 cells): 92.4 pmole/well
- maximal cAMP accumulation (zPTH1R [1]; zPTH1R#29, COS-7 cells): 101.6 pmole/well
- IC50 (zPTH3R [2]; [6]): ~3 nM
- Kd (zPTH3R [2]; zPTH3R, COS-7 cells, read-out: apparent Kd): ~3 nM
- increase of IP accumulation (zPTH1R [3]): 2 fold
- IP accumulation (zPTH3R [4]): no IP accumulation was detectable
- EC50 (zPTH3R [5]; [6]): 0.49 ± 0.17 nM
- maximal cAMP accumulation (zPTH3R [5]; [6]): 285.4 ± 3.4 pmol/well
- maximal cAMP accumulation (zPTH3R [5]; zPTH3R, COS-7 cells): 227 pmol/well
- cAMP activation at low concentration (zPTH3R [5]; zPTH3R, COS-7 cells, 10^−11 M): significant activation

Substance: AVAEIQLMHNLGKHLNSMERVEWLRKKLQDVHDY [hPTH, [Tyr^34]hPTH(1–34)amide]
- cAMP Maximum (zPTH1R [1]; zPPR1#25): 90.4 ± 11.4 pmol/well
- EC50 (zPTH1R [1]; zPPR1#29): 0.8 ± 0.03 nM
- cAMP Maximum (zPTH1R [1]; zPPR1#29): 106.2 ± 4.8 pmol/well
- maximal cAMP accumulation (zPTH1R [1]; zPTH1R#25, COS-7 cells): 90.4 pmole/well
- maximal cAMP accumulation (zPTH1R [1]; zPTH1R#29, COS-7 cells): 106.2 pmole/well
- increase of IP accumulation (zPTH1R [3]): 2 fold
- IP accumulation (zPTH3R [4]): no IP accumulation was detectable
- EC50 (zPTH3R [5]; [6]): 5.98 ± 0.24 nM
- maximal cAMP accumulation (zPTH3R [5]; [6]): 227.4 ± 41.6 pmol/well
- maximal cAMP accumulation (zPTH3R [5]; zPTH3R, COS-7 cells): 285 pmol/well

From US7078487B2, “PTH1R receptors” (The General Hospital Corporation, priority 1998, dated 2006)
